Test results from patent US12372525B2 (priority 2013, dated 2025).
pIC50: −log10 of the molar value. Entries after “also recorded” stand apart in the source; their conditions may differ.

Columns and labels:
[1] = test system: A/Washington/29/2009(H1N1pdm) H275Y; conditions: Oselt resistance strain; cited from earlier work
[2] = test system: A/Georgia/20/2006 (H1N1) H274Y; conditions: Oselt resistance strain; cited from earlier work
[3] = test system: A/Texas/12/2007 (H3N2) E119V; conditions: Oselt resistance strain; cited from earlier work
[4] = test system: B/Hong Kong/36/2005 B) R371K; conditions: Oselt + Zana resistance strain; cited from earlier work
[5] = test system: A/Massachusetts/5/2007 (H1N1) H274Y; conditions: Oselt resistance strain; cited from earlier work
[6] = test system: A/Mississippi/03/2001 A(H1N1) H275Y neuraminidase; conditions: stated character of the test strain; cited from earlier work
[7] = test system: influenza virus; conditions: cited from earlier work
[8] = test system: A/Montana/8/2007 (H3N2) D151V/D; conditions: Zana resistance strain; cited from earlier work
[9] = test system: A/Mississippi/03/2001 A(H1N1) H275Y neuraminidase; format: biochemical, Influenza A

CCOC(=O)C1=C[C@@H](OC(CC)CC)[C@H](NC(C)=O)[C@@H](N)C1 [Oseltamivir]
pIC50 [1]: 5.84 | pIC50 [2]: 6.42 | pIC50 [3]: 8.04 | pIC50 [4]: 5.75 | pIC50 [5]: 6.59 | known sensitivity of the test strain neuraminidase to the drug [6]: resistant | decrease in susceptibility of isolated virus variants [7]: > 10 fold

CC(=O)N[C@H]1[C@H]([C@H](O)[C@H](O)CO)OC(C(=O)O)=C[C@@H]1N=C(N)N [Zanamivir]
pIC50 [4]: 6.81 | pIC50 [8]: 6.72 | relative sensitivity of test strain in dual enzyme assay [9]: more sensitive to Zanamivir than Oseltamivir; also recorded: Relenza outperforms Tamiflu | known sensitivity of the test strain neuraminidase to the drug [6]: sensitive
